The record followed here is US12516070B2, “Fused ring derivatives and use thereof in pharmacy” (priority 2020, dated 2026).

For test [1], the system named is A/WSN/33 I38T Mutation (H1N1). It counts as cell-based, influenza virus.
Test [2] has as its system A/PR/8/34 I38T Mutation (H1N1). It counts as cell-based, influenza virus.

The EC50 is the concentration giving half of the maximal effect. `CN1C(=O)c2c(O)c(=O)ccn2N2[C@H](c3ccccc3Br)c3cc(F)c(F)cc3OCC[C@@H]12` [Compound 18A]: the EC50 turned out to be 214 nM in test [1] and 117 nM in test [2].
